Patent EP0590885B1, “Antibiotic carbapenem compounds” (ZENECA LIMITED, priority 1992, dated 1994)
In brackets after ≈: the same amount, converted by molar mass.

How the values were obtained:
Assay in all cases: MIC by agar-dilution technique, Diagnostic Sensitivity Test
Assay type in all cases: cell-based
S. aureus 147N = conditions: Staphylococcus aureus, inoculum size 10^4 CFU/spot
Text: (§1) The following results were obtained for representative compounds on a standard in vitro test system using Diagnostic Sensitivity Test. The antibacterial activity is described in terms of the minimum inhibitory concentration (MIC) determined by the agar-dilution technique with an inoculum size of 10^4 CFU/spot.

E. coli TEM = conditions: Escherichia coli
Text: as §1

[1] = tested on: Enterobacter cloacae -029; conditions: inoculum size 10^4 CFU/spot
Text: as §1

Enterobacter cloacae 108 = conditions: inoculum size 10^4 CFU/spot
Text: as §1

| Structure (SMILES) | MIC (S. aureus 147N) | MIC (E. coli TEM) | MIC [1] | MIC (Enterobacter cloacae 108) |
| --- | --- | --- | --- | --- |
| CO/N=C(\C(=O)N[C@@H]1C(=O)N2C(C(=O)O)=C(CSc3nc(=O)c(=O)[nH]n3C)CS[C@H]12)c1csc(N)n1 [ceftriaxone, reference compound] | 2 µg/mL (≈ 3.61 µM) | 0.03 µg/mL (≈ 0.0541 µM) | 0.06 µg/mL (≈ 0.108 µM) | 32 µg/mL (≈ 57.7 µM) |
| C[C@@H](O)[C@H]1C(=O)N2C(C(=O)O)=C(S[C@@H]3CN[C@H](C(=O)Nc4cccc(OCC(=O)O)c4)C3)[C@H](C)[C@H]12 [Example 3, (1R,5S,6S,8R,2'S,4'S)-2-(2-(3-Carboxymethoxyphenylcarbamoyl)pyrrolidin-4-ylthio)-6-(1-hydroxyethyl)-1-methylcarbapenem-3-carboxylic acid] | 0.25 µg/mL (≈ 0.495 µM) | 0.03 µg/mL (≈ 0.0593 µM) | 0.06 µg/mL (≈ 0.119 µM) | 1 µg/mL (≈ 1.98 µM) |
| C[C@@H](O)[C@H]1C(=O)N2C(C(=O)O)=C(S[C@@H]3CN[C@H](C(=O)Nc4cccc(C(=O)NCC(=O)O)c4)C3)[C@H](C)[C@H]12 [Example 7, (1R,5S,6S,8R,2'S,4'S)-2(2-(3-Carboxymethylaminocarbonylphenylcarbamoyl)-pyrrolidin-4-ylthio)-6-(1-hydroxyethyl)-1-methylcarbapenem-3-carboxylic acid] | 0.25 µg/mL (≈ 0.469 µM) | 0.03 µg/mL (≈ 0.0563 µM) | 0.13 µg/mL (≈ 0.244 µM) | 1 µg/mL (≈ 1.88 µM) |
| C[C@@H](O)[C@H]1C(=O)N2C(C(=O)O)=C(S[C@@H]3CN[C@H](C(=O)Nc4cccc(/C=C/C(=O)O)c4)C3)[C@H](C)[C@H]12 [Example 1, (1R,5S,6S,8R,2'S,4'S)-2-(2-(3-(E-2-Carboxy-1-ethenyl)phenylcarbamoyl)pyrrolidin-4-ylthio)-6-(1-hydroxyethyl)-1-methylcarbapenem-3-carboxylic acid] | 0.13 µg/mL (≈ 0.259 µM) | 0.03 µg/mL (≈ 0.0598 µM) | 0.13 µg/mL (≈ 0.259 µM) | 2 µg/mL (≈ 3.99 µM) |
| C[C@@H](O)[C@H]1C(=O)N2C(C(=O)O)=C(S[C@@H]3CN[C@H](C(=O)Nc4cc(/C=C/C(=O)O)ccc4O)C3)[C@H](C)[C@H]12 [Example 2, (1R,5S,6S,8R,2'S,4'S)-2-(2-(3-(E-2-Carboxy-1-ethenyl)-6-hydroxyphenylcarbamoyl)pyrrolidin-4-ylthio)-6-(1-hydroxyethyl)-1-methylcarbapenem-3-carboxylic acid] | 0.25 µg/mL (≈ 0.483 µM) | 0.06 µg/mL (≈ 0.116 µM) | 0.25 µg/mL (≈ 0.483 µM) | 4 µg/mL (≈ 7.73 µM) |
